# Measured values published in PubChem BioAssay AID1259407 (Chemical Carcinogenesis Research Information System (CCRIS), 2018).
# Activity calls are given as the source filed them. How the calls were made is not given here.
# Tested on: CCRIS mutagenicity, Ames/micronucleus/aberration tests
# Test: CCRIS mutagenicity studies
# [1] = Test System: AMES SALMONELLA TYPHIMURIUM, Strain/Indicator: TA98, Metabolic Activation: NONE, Method: PREINCUBATION
# [2] = Test System: AMES SALMONELLA TYPHIMURIUM, Strain/Indicator: TA100, Metabolic Activation: NONE, Method: PREINCUBATION
# [3] = Test System: AMES SALMONELLA TYPHIMURIUM, Strain/Indicator: TA98, Metabolic Activation: NONE, Method: STANDARD PLATE
# [4] = Test System: AMES SALMONELLA TYPHIMURIUM, Strain/Indicator: TA98, Metabolic Activation: RAT, LIVER, S-9, AROCLOR 1254, Method: STANDARD PLATE
# [5] = Test System: AMES SALMONELLA TYPHIMURIUM, Strain/Indicator: TA100, Metabolic Activation: NONE, Method: STANDARD PLATE
# [6] = Test System: AMES SALMONELLA TYPHIMURIUM, Strain/Indicator: TA100, Metabolic Activation: RAT, LIVER, S-9, AROCLOR 1254, Method: STANDARD PLATE
# [7] = Test System: AMES SALMONELLA TYPHIMURIUM, Strain/Indicator: TA102, Metabolic Activation: NONE, Method: STANDARD PLATE
smiles,measurement,setting,value
COc1ccc(C(=O)c2ccccc2)c(O)c1,mutagenic call,"Test System: AMES SALMONELLA TYPHIMURIUM, Strain/Indicator: TA97, Metabolic Activation: HAMSTER, LIVER, S-9, AROCLOR 1254 (10%), Method: PREINCUBATION",inactive; negative
same,mutagenic call,"Test System: AMES SALMONELLA TYPHIMURIUM, Strain/Indicator: TA97, Metabolic Activation: HAMSTER, LIVER, S-9, AROCLOR 1254 (30%), Method: PREINCUBATION",inactive; negative
same,mutagenic call,"Test System: AMES SALMONELLA TYPHIMURIUM, Strain/Indicator: TA97, Metabolic Activation: NONE, Method: PREINCUBATION",inactive; negative
same,mutagenic call,"Test System: AMES SALMONELLA TYPHIMURIUM, Strain/Indicator: TA97, Metabolic Activation: RAT, LIVER, S-9, AROCLOR 1254 (10%), Method: PREINCUBATION",inactive; negative
same,mutagenic call,"Test System: AMES SALMONELLA TYPHIMURIUM, Strain/Indicator: TA97, Metabolic Activation: RAT, LIVER, S-9, AROCLOR 1254 (30%), Method: PREINCUBATION",inactive; negative
same,mutagenic call,"Test System: AMES SALMONELLA TYPHIMURIUM, Strain/Indicator: TA98, Metabolic Activation: HAMSTER, LIVER, S-9, AROCLOR 1254 (10%), Method: PREINCUBATION",inactive; negative
same,mutagenic call,"Test System: AMES SALMONELLA TYPHIMURIUM, Strain/Indicator: TA98, Metabolic Activation: HAMSTER, LIVER, S-9, AROCLOR 1254 (30%), Method: PREINCUBATION",inactive; negative
same,mutagenic call,[1],inactive; negative
same,mutagenic call,"Test System: AMES SALMONELLA TYPHIMURIUM, Strain/Indicator: TA98, Metabolic Activation: RAT, LIVER, S-9, AROCLOR 1254 (10%), Method: PREINCUBATION",inactive; negative
same,mutagenic call,"Test System: AMES SALMONELLA TYPHIMURIUM, Strain/Indicator: TA98, Metabolic Activation: RAT, LIVER, S-9, AROCLOR 1254 (30%), Method: PREINCUBATION",inactive; negative
same,mutagenic call,"Test System: AMES SALMONELLA TYPHIMURIUM, Strain/Indicator: TA100, Metabolic Activation: HAMSTER, LIVER, S-9, AROCLOR 1254 (10%), Method: PREINCUBATION",inactive; negative
same,mutagenic call,"Test System: AMES SALMONELLA TYPHIMURIUM, Strain/Indicator: TA100, Metabolic Activation: HAMSTER, LIVER, S-9, AROCLOR 1254 (30%), Method: PREINCUBATION",inactive; negative
same,mutagenic call,[2],inactive; negative
same,mutagenic call,"Test System: AMES SALMONELLA TYPHIMURIUM, Strain/Indicator: TA100, Metabolic Activation: RAT, LIVER, S-9, AROCLOR 1254 (10%), Method: PREINCUBATION",inactive; negative
same,mutagenic call,"Test System: AMES SALMONELLA TYPHIMURIUM, Strain/Indicator: TA100, Metabolic Activation: RAT, LIVER, S-9, AROCLOR 1254 (30%), Method: PREINCUBATION",inactive; negative
same,mutagenic call,"Test System: AMES SALMONELLA TYPHIMURIUM, Strain/Indicator: TA1535, Metabolic Activation: HAMSTER, LIVER, S-9, AROCLOR 1254 (10%), Method: PREINCUBATION",inactive; negative
same,mutagenic call,"Test System: AMES SALMONELLA TYPHIMURIUM, Strain/Indicator: TA1535, Metabolic Activation: HAMSTER, LIVER, S-9, AROCLOR 1254 (30%), Method: PREINCUBATION",inactive; negative
same,mutagenic call,"Test System: AMES SALMONELLA TYPHIMURIUM, Strain/Indicator: TA1535, Metabolic Activation: NONE, Method: PREINCUBATION",inactive; negative
same,mutagenic call,"Test System: AMES SALMONELLA TYPHIMURIUM, Strain/Indicator: TA1535, Metabolic Activation: RAT, LIVER, S-9, AROCLOR 1254 (10%), Method: PREINCUBATION",inactive; negative
same,mutagenic call,"Test System: AMES SALMONELLA TYPHIMURIUM, Strain/Indicator: TA1535, Metabolic Activation: RAT, LIVER, S-9, AROCLOR 1254 (30%), Method: PREINCUBATION",inactive; negative
same,mutagenic call,"Test System: AMES SALMONELLA TYPHIMURIUM, Strain/Indicator: TA1537, Metabolic Activation: HAMSTER, LIVER, S-9, AROCLOR 1254 (10%), Method: PREINCUBATION",inactive; negative
same,mutagenic call,"Test System: AMES SALMONELLA TYPHIMURIUM, Strain/Indicator: TA1537, Metabolic Activation: NONE, Method: PREINCUBATION",inactive; negative
same,mutagenic call,"Test System: AMES SALMONELLA TYPHIMURIUM, Strain/Indicator: TA1537, Metabolic Activation: RAT, LIVER, S-9, AROCLOR 1254 (10%), Method: PREINCUBATION",inactive; negative
same,mutagenic call,"Test System: MOUSE LYMPHOMA, Strain/Indicator: L5178Y (TK+/TK-), Metabolic Activation: NONE, Method: SUSPENSION/PLATE",inactive; positive. reevaluation of results: negative
same,mutagenic call,"Test System: MOUSE LYMPHOMA, Strain/Indicator: L5178Y (TK+/TK-), Metabolic Activation: RAT, LIVER, S-9, AROCLOR 1254, Method: SUSPENSION/PLATE",active; positive. reevaluation of results: equivocal
Clc1ccncc1,mutagenic call,"Test System: AMES SALMONELLA TYPHIMURIUM, Strain/Indicator: TA97, Metabolic Activation: NONE, Method: STANDARD PLATE",inactive; negative
same,mutagenic call,"Test System: AMES SALMONELLA TYPHIMURIUM, Strain/Indicator: TA97, Metabolic Activation: RAT, LIVER, S-9, AROCLOR 1254, Method: STANDARD PLATE",inactive; negative
same,mutagenic call,[3],inactive; negative
same,mutagenic call,[4],inactive; negative
same,mutagenic call,[5],inactive; negative
same,mutagenic call,[6],inactive; negative
same,mutagenic call,[7],inactive; negative
same,mutagenic call,"Test System: AMES SALMONELLA TYPHIMURIUM, Strain/Indicator: TA102, Metabolic Activation: RAT, LIVER, S-9, AROCLOR 1254, Method: STANDARD PLATE",inactive; negative
O=[N+]([O-])c1cc2c3c(ccc2c2ccccc12)[C@H](O)[C@@H](O)C=C3,mutagenic call,[1],active; positive
same,mutagenic call,[3],inactive; negative
same,mutagenic call,"Test System: AMES SALMONELLA TYPHIMURIUM, Strain/Indicator: TA98, Metabolic Activation: RAT, LIVER, S-9, AROCLOR 1254, Method: PREINCUBATION",inactive; negative
same,mutagenic call,[4],active; positive
same,mutagenic call,[2],active; positive
same,mutagenic call,[5],active; positive
same,mutagenic call,"Test System: AMES SALMONELLA TYPHIMURIUM, Strain/Indicator: TA100, Metabolic Activation: RAT, LIVER, S-9, AROCLOR 1254, Method: PREINCUBATION",active; positive
same,mutagenic call,[6],active; positive
same,mutagenic call,"Test System: CHINESE HAMSTER OVARY, Strain/Indicator: CHO-K1-BH4 (HGPRT)/6-THIOGUANINE, Metabolic Activation: NONE, Method: STANDARD PLATE",inactive; negative
same,mutagenic call,"Test System: CHINESE HAMSTER OVARY, Strain/Indicator: CHO-K1-BH4 (HGPRT)/6-THIOGUANINE, Metabolic Activation: RAT, LIVER, S-9, AROCLOR 1254, Method: STANDARD PLATE",active; positive
same,mutagenic call,"Test System: CHINESE HAMSTER OVARY, Strain/Indicator: CHO-UV5 (HGPRT)/6-THIOGUANINE, Metabolic Activation: NONE, Method: STANDARD PLATE",inactive; negative
same,mutagenic call,"Test System: CHINESE HAMSTER OVARY, Strain/Indicator: CHO-UV5 (HGPRT)/6-THIOGUANINE, Metabolic Activation: RAT, LIVER, S-9, AROCLOR 1254, Method: STANDARD PLATE",active; positive
Cc1ccc([N+]#N)cc1,mutagenic call,[5],active; positive
same,mutagenic call,[7],active; positive
same,mutagenic call,"Test System: CHINESE HAMSTER V-79, Strain/Indicator: V-79/6-THIOGUANINE, Metabolic Activation: NONE",active; positive
O[C@@H]1[C@H]2O[C@H]2c2c(ccc3cc4c(ccc5ccccc54)nc23)[C@H]1O,mutagenic call,[1],active; positive
same,mutagenic call,[2],active; positive
same,mutagenic call,"Test System: CHINESE HAMSTER V-79, Strain/Indicator: V-79/8-AZAGUANINE, Metabolic Activation: NONE",active; positive
Cc1cccc(C2CO2)c1 (stereo not drawn),mutagenic call,"Test System: E. COLI, Strain/Indicator: WP2 UVRA, Metabolic Activation: NONE, Method: STANDARD PLATE",active; positive
CCCCCn1cc2c3c(cccc31)[C@H]1C=C(C)CN(C)[C@@H]1C2,mutagenic call,[6],active; positive
